What was measured:
AMARE [1] = test: Post-emergence herbicidal action against AMARE; assay type: in vivo, Amaranthus retroflexus; conditions: visual rating about 3 weeks after treatment
Description: (§1) [table] Seeds of mono- and dicotyledonous weed plants are placed in plastic pots in sandy loam soil (twin sowing with one species each of mono- or dicotyledonous weed plants per pot), covered with soil and cultivated in a greenhouse under controlled growth conditions. 2 to 3 weeks after sowing, the test plants are treated at the one-leaf stage. The compounds of the invention, formulated in the form of wettable powders (WP) or as emulsion concentrates (EC), are applied to the green parts of the plants as aqueous suspension or emulsion with addition of 0.5% additive at a water application rate equivalent to 600 litres per hectare. After the test plants have been kept in the greenhouse under optimum growth conditions for about 3 weeks, the activity of the preparations is rated visually in comparison to untreated controls. For example, 100% activity=the plants have died, 0% activity=like control plants. Tables 5.1-5.16 below show the effects of selected compounds of the general formula (I) according to Tables 1 to 3 on various harmful plants at an application rate corresponding to 1280 or 320 g/ha, which have been obtained by the aforementioned experimental method.

MATIN = test: Post-emergence herbicidal action against MATIN; assay type: in vivo, Matricaria inodora; conditions: visual rating about 3 weeks after treatment
Description: as §1

PHBPU = test: Post-emergence herbicidal action against PHBPU; assay type: in vivo, Pharbitis purpurea; conditions: 320 g/ha, visual rating about 3 weeks after treatment
Description: as §1

VERPE [2] = test: Post-emergence herbicidal action against VERPE; assay type: in vivo, Veronica persica; conditions: 320 g/ha, visual rating about 3 weeks after treatment
Description: as §1

ECHCG [3] = test: Pre-emergence herbicidal action against ECHCG; assay type: in vivo, Echinochloa crus-galli; conditions: scored visually after about 3 weeks vs untreated controls, 100% = plants have died, 0% = like control plants
Description: (§2) Seeds of mono- and dicotyledonous weed plants are placed in plastic pots in sandy loam soil (doubly sown with one species each of mono- or dicotyledonous weed plants per pot) and covered with soil. The compounds of the invention, formulated in the form of wettable powders (WP) or as emulsion concentrates (EC), are then applied onto the surface of the covering soil as aqueous suspension or emulsion with addition of 0.5% additive at a water application rate equivalent to 600 litres per hectare. After the treatment, the pots are placed in a greenhouse and kept under good growth conditions for the trial plants. After about 3 weeks, the effect of the preparations is scored visually in comparison with untreated controls as percentages. For example, 100% activity=the plants have died, 0% activity=like control plants. [table] Tables 4.1-4.15 below show the effects of selected compounds of the general formula (I) according to Tables 1 to 3 on various harmful plants at an application rate corresponding to 1280 or 320 g/ha, which have been obtained by the aforementioned experimental method.

SETVI [4] = test: Pre-emergence herbicidal action against SETVI; assay type: in vivo, Setaria viridis; conditions: 1280 g/ha, scored visually after about 3 weeks vs untreated controls
Description: as §2

AMARE [5] = test: Pre-emergence herbicidal action against AMARE; assay type: in vivo, Amaranthus retroflexus; conditions: scored visually after about 3 weeks vs untreated controls; for Pre-emergence action against AMARE in %: 1280 g/ha
Description: as §2

STEME [6] = test: Pre-emergence herbicidal action against STEME; assay type: in vivo, Stellaria media; conditions: 1280 g/ha, scored visually after about 3 weeks vs untreated controls
Description: as §2

ECHCG [7] = test: Post-emergence herbicidal action against ECHCG; assay type: in vivo, Echinochloa crus-galli; conditions: 1280 g/ha, post-emergence at one-leaf stage, rated visually after about 3 weeks vs untreated controls
Description: as §1

SETVI [8] = test: Post-emergence herbicidal action against SETVI; assay type: in vivo, Setaria viridis; conditions: 1280 g/ha, post-emergence at one-leaf stage, rated visually after about 3 weeks vs untreated controls
Description: as §1

STEME [9] = test: Post-emergence herbicidal action against STEME; assay type: in vivo, Stellaria media; conditions: visual rating about 3 weeks after treatment
Description: as §1

VERPE [10] = test: Pre-emergence herbicidal action against VERPE; assay type: in vivo, Veronica persica; conditions: 320 g/ha, scored visually after about 3 weeks vs untreated controls
Description: as §2

VIOTR = test: Post-emergence herbicidal action against VIOTR; assay type: in vivo, Viola tricolor; conditions: 320 g/ha, visual rating about 3 weeks after treatment
Description: as §1

POLCO = test: Post-emergence herbicidal action against POLCO; assay type: in vivo, Polygonum convolvulus; conditions: 320 g/ha, visual rating about 3 weeks after treatment
Description: as §1

Compound	Post-emergence action against AMARE in % (AMARE [1]; 1280 g/ha)	Post-emergence action against MATIN in % (MATIN; 1280 g/ha)	Post-emergence action against PHBPU in % (PHBPU)	Post-emergence action against VERPE in % (VERPE [2])	Pre-emergence action at 1280 g/ha against ECHCG in % (ECHCG [3])	Pre-emergence action against SETVI in % (SETVI [4])	Pre-emergence action against AMARE in % (AMARE [5])	Pre-emergence action against STEME in % (STEME [6])	Post-emergence action against ECHCG in % (ECHCG [7])	Post-emergence action against SETVI in % (SETVI [8])	Post-emergence action against STEME in % (STEME [9]; 1280 g/ha)	Pre-emergence action at 320 g/ha against AMARE in % (AMARE [5]; 320 g/ha, 100% = plants have died, 0% = like control plants)	Pre-emergence action against VERPE in % (VERPE [10])	Post-emergence action against AMARE in % (AMARE [1]; 320 g/ha)	Post-emergence action against MATIN in % (MATIN; 320 g/ha)	Post-emergence action against STEME in % (STEME [9]; 320 g/ha)	Post-emergence action against VIOTR in % (VIOTR)	Post-emergence action against POLCO in % (POLCO)
COC(=O)COc1nn(-c2cccc(F)c2)c(-c2cccc(Cl)c2)c1C#N [I-038]	90%	80%	80%	80%														
CCOC(=O)COc1nn(-c2ccc(F)cc2F)c(-c2cccc(F)c2)c1Cl [I-098]	100%	90%			100%	90%	100%	100%	100%	90%	90%							
O=C(O)COc1nn(-c2ccccc2F)c(-c2ccc(F)c(F)c2)c1Br [I-136]	90%	90%			100%	100%	100%	100%	100%		100%							
COC(=O)C(C)Oc1nn(-c2ccccc2)c(-c2cccc(F)c2)c1Cl (centres unmarked) [I-164]	100%	100%			100%	100%	100%	100%	90%	100%	100%							
COC(=O)COc1nn(-c2ccc(Cl)cc2)c(-c2cccc(F)c2)c1Cl [I-029]			80%	80%														
CCOC(=O)COc1nn(-c2cc(F)c(F)cc2F)c(-c2ccccc2)c1Cl [I-093]	100%	100%			100%	100%	100%	100%	100%		100%							
COC(=O)C(C)Oc1nn(-c2ccccc2)c(-c2ccc(F)cc2)c1Cl (centres unmarked) [I-145]		90%			100%	100%	90%	100%		90%	100%							
COC(=O)COc1nn(-c2cccc(F)c2)c(-c2cccc(F)c2)c1C#N [I-047]			80%	80%								90%	90%	80%	80%	80%	90%	
COC(=O)C(C)Oc1nn(-c2c(F)cccc2F)c(-c2ccc(F)c(F)c2)c1Br (centres unmarked) [I-169]	100%	90%			100%	100%	100%	100%	90%	90%	100%							
C=CCNC(=O)COc1nn(-c2ccccc2F)c(-c2ccc(F)c(F)c2)c1Cl [III-067]		90%			100%	100%	100%	90%		100%	100%							
CCOC(=O)CCNC(=O)COc1nn(-c2ccc(F)cc2)c(-c2cccc(F)c2)c1Br [III-019]	100%	90%				100%	90%	100%	90%	90%								
O=C(COc1nn(-c2ccc(F)cc2)c(-c2cccc(F)c2)c1Br)OCc1cccc(F)c1 [I-123]	90%	90%				90%	100%	100%	90%									
CCOC(=O)COc1nn(-c2cc(F)c(F)cc2F)c(-c2cccc(F)c2)c1Cl [I-097]		100%			100%	100%	100%	100%	100%	90%	100%							
CC(Oc1nn(-c2c(F)cccc2F)c(-c2ccc(F)c(F)c2)c1Br)C(=O)O (centres unmarked) [I-167]					100%	100%	100%	100%	90%		100%							
COC(=O)COc1nn(-c2ccc(F)cc2)c(-c2cccc(F)c2)c1Br [I-107]	100%	100%			100%	90%	90%	100%	90%		90%							
COC(=O)COc1nn(-c2cccc(F)c2)c(-c2ccc(Cl)cc2)c1Cl [I-005]	80%		80%											80%			80%	
COC(=O)[C@H](C)Oc1nn(-c2cccc(F)c2)c(-c2cccc(F)c2)c1C#N [I-126]	100%					100%	100%	100%	90%	90%	100%							
CCOC(=O)COc1nn(-c2ccccc2F)c(-c2ccc(F)c(F)c2)c1[N+](=O)[O-] [I-143]	100%	100%				100%	100%	90%	100%		100%							
COC(=O)COc1nn(-c2ccccc2)c(-c2ccc(Cl)cc2)c1Cl [I-004]	80%		80%				90%											80%
O=C(O)COc1nn(-c2ccc(F)cc2)c(-c2cccc(F)c2)c1Cl [I-120]		90%			90%	100%	100%	100%	90%									

Reference: US20230066946A1, “1,5-DIPHENYLPYRAZOLYL-3-OXYALKYL ACIDS AND 1-PHENYL-5-THIENYLPYRAZOLYL-3-OXYALKYL ACIDS AND THE USE THEREOF FOR CONTROL OF UNWANTED PLANT GROWTH” (Bayer Aktiengesellschaft, priority 2019, published 2023)
